Legend:
[1] = biological target: T1, human adenosine A3 receptor (Homo sapiens, UniProt P0DMS8); assay: Reporter gene (CRE/SPAP) agonist assay in CHO cells, adenosine A3 receptor; settings: CHO cells with human A3 receptor; inhibition of forskolin-stimulated SPAP production; potency relative to NECA=1
T1 sequence (P0DMS8 1-318): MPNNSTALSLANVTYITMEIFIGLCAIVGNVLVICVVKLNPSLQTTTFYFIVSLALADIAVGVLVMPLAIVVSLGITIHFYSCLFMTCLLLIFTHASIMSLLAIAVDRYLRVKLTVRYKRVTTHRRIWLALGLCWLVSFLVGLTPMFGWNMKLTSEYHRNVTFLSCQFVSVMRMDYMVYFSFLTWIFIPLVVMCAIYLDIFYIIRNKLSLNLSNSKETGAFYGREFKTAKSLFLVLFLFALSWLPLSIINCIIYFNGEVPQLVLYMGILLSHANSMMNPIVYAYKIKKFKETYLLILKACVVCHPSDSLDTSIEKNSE

[2] = biological target: T2, human adenosine A1 receptor (Homo sapiens, UniProt P30542); assay: Reporter gene (CRE/SPAP) agonist assay in CHO cells, adenosine A1 receptor; assay type: cell-based; settings: CHO cells with human A1 receptor; inhibition of forskolin-stimulated SPAP production; potency relative to NECA=1
T2 construct: expressed in transfected cells; host or cells: Chinese hamster ovary (CHO) cells containing CRE/SPAP/HYG reporter elements
T2 sequence (P30542 1-326): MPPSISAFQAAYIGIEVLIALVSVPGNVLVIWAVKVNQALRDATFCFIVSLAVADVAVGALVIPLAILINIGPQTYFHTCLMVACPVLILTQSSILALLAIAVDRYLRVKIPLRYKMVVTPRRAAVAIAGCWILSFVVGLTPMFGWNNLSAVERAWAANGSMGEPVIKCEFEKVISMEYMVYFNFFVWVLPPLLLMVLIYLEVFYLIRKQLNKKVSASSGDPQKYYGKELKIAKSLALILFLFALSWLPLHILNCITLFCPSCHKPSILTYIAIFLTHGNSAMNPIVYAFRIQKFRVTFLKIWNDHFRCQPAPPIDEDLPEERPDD
Method: Agonist activity was measured in Chinese hamster ovary (CHO) cells containing the CRE/SPAP/HYG (CRE=cyclic AMP response element; HYG=hygromycin resistance; SPAP=secreted placental alkaline phosphatase) reporter gene elements, which upon stimulation of cAMP levels produced SPAP. A cell line was used, which was stably transfected with either the human adenosine A1 receptor or the human adenosine A3 receptor in addition to the above elements. Cells were plated out in 96-well plates in culture medium and incubated at 37° C. for 1 hour. […] All cells were then incubated for a further 5 hours at 37° C., and cooled to room temperature, after which a substrate for the phosphatase (para-nitrophenol phosphate, pNPP), which is converted by SPAP to a coloured reagent) was then added and the 96-well plates were read in a plate reader. From these readings, the concentration-dependence of the inhibition by the agonist for forskolin-stimulated SPAP production can be calculated.
(ECR=equipotent concentration ratio relative to NECA=1)

Row | Compound | A3 ECR (equipotent concentration ratio relative to NECA=1) [1] | A1 ECR (equipotent concentration ratio relative to NECA=1) [2] | melting point [°C]
1 | OCC(O)CNc1ncnc2c1ncn2[C@@H]1O[C@H](COC(F)(F)F)[C@@H](O)[C@H]1O (relative stereo) [Example 20, N-(rel-2,3-Dihydroxy-propyl)-5′-O-trifiuoromethyl-adenosine] | 284.5 | 24.10 | 
2 | O[C@@H]1[C@H](O)[C@@H](COC(F)(F)F)O[C@H]1n1cnc2c(NC3CCOCC3)ncnc21 [Example 1, N-(Tetrahydro-pyran-4-yl)-5′-O-trifluoromethyladenosine] | >129 | 8.40 | 
3 | O[C@@H]1[C@H](O)[C@@H](COC(F)(F)F)O[C@H]1n1cnc2c(NCCc3ccncc3)ncnc21 [Example 2, N-(2-Pyridin-4-yl-ethyl)-5′-O-trifluoromethyladenosine] |  | 185.5 | 
4 | O[C@@H]1[C@H](O)[C@@H](COC(F)(F)F)O[C@H]1n1cnc2c(NC3CC4CCC3C4)ncnc21 (stereo partly drawn) [Example 3, N-(exo-Bicyclo[2.2.1]hept-2-yl)-5′-O-trifluoromethyl-adenosine] | 143.5 |  | 
5 | Nc1ncnc2c1ncn2[C@@H]1O[C@H](COC(F)(F)F)[C@@H](O)[C@H]1O [Example 4, 5′-O-Trifluoromethyladenosine] | 81.6 | 80.7 | 
6 | CNS(=O)(=O)CCNc1ncnc2c1ncn2[C@@H]1O[C@H](COC(F)(F)F)[C@@H](O)[C@H]1O [Example 5, 2-[9-(3R,4S-Dihydroxy-5R-trifluoromethoxymethyl-tetrahydro-furan-2R-yl)-9H-purin-6-ylamino]-ethanesulfonic Acid Methylamide] | >212 | 33.2 | 
7 | O[C@@H]1[C@H](O)[C@@H](COCC(F)(F)F)O[C@H]1n1cnc2c(NC3CCCC3)ncnc21 [Example 6, N-Cyclopentyl-5′-O-(2,2,2-trifluoro-ethyl)-adenosine] | 7.7 | 8.70 | 74 to 76
8 | O[C@@H]1[C@H](O)[C@@H](COCC(F)(F)F)O[C@H]1n1cnc2c(N[C@@H]3CCC[C@H]3O)ncnc21 [Example 8, N-(2R-Hydroxy-cyclopent-(R)-yl)-5′-O-(2,2,2-trifluoro-ethyl)-adenosine] |  | 239.40 | 
9 | O[C@@H]1[C@H](O)[C@@H](COCC(F)(F)F)O[C@H]1n1cnc2c(Nc3ccc(F)cc3)ncnc21 [Example 9, N-(4-Fluoro-phenyl)-5′-O-(2,2,2-trifluoro-ethyl)-adenosine] | 19.7 | 298 | 
10 | O[C@@H]1[C@H](O)[C@@H](COC(F)(F)F)O[C@H]1n1cnc2c(N[C@H]3CCC[C@@H]3F)ncnc21 [Example 12, N-(2S-Fluoro-cyclopent-(S)-yl)-5′-O-trifluoromethyl-adenosine] | >226 |  | 
11 | O[C@@H]1[C@H](O)[C@@H](COC(F)(F)F)O[C@H]1n1cnc2c(NC3CCSCC3)ncnc21 [Example 13, N-(Tetrahydro-thiopyran-4-yl)-5′-O-trifluoromethyl-adenosine] | >276 | 11.1 | 
12 | O[C@@H]1[C@H](O)[C@@H](COC(F)(F)F)O[C@H]1n1cnc2c(Nc3ccc(F)c(F)c3)ncnc21 [Example 14, N-(3,4-Difluoro-phenyl)-5′-O-trifluoromethyl-adenosine] | 197.3 | 20.50 | 
13 | O[C@@H]1[C@H](O)[C@@H](COC(F)(F)F)O[C@H]1n1cnc2c(Nc3cccc(F)c3)ncnc21 [Example 15, N-(3-Fluoro-phenyl)-5′-O-trifluoromethyl-adenosine] |  | 23.2 | 
14 | O=S1(=O)CCC(Nc2ncnc3c2ncn3[C@@H]2O[C@H](COC(F)(F)F)[C@@H](O)[C@H]2O)CC1 [Example 16, N-(1,1-Dioxo-hexahydro-1δ6-thiopyran-4-yl)-5′-O-trifluoromethyl-adenosine] | >207 | 79.50 | 
15 | CC(C)(C)Nc1ncnc2c1ncn2[C@@H]1O[C@H](COC(F)(F)F)[C@@H](O)[C@H]1O [Example 17, N-tert-Butyl-5′-O-trifiuoromethyl-adenosine] | >207 |  | 
16 | CCOC(=O)N1CCC(Nc2ncnc3c2ncn3[C@@H]2O[C@H](COC(F)(F)F)[C@@H](O)[C@H]2O)CC1 [Example 18, 4-[9-(3R,4S-Dihydroxy-5R-trifluoromethoxymethyl-tetrahydro-furan-2R-yl)-9H-purin-6-ylamino]-piperidine-1-carboxylic Acid Ethyl Ester] | >202 | 5.32 | 
17 | O[C@@H]1[C@H](O)[C@@H](COC(F)(F)F)O[C@H]1n1cnc2c(N[C@H]3CCC[C@@H]3O)ncnc21 [Example 19, N-(2S-Hydroxy-cyclopent-(S)-yl)-5′-O-trifluoromethyl-adenosine] | >150 |  | 
18 | O[C@@H]1[C@H](O)[C@@H](COC(F)(F)F)O[C@H]1n1cnc2c(N[C@@H]3CCOC3)ncnc21 [Example 21, N-(Tetrahydro-furan-3R-yl)-5′-O-trifluoromethyl-adenosine] | >175 |  | 
19 | O[C@@H]1[C@H](O)[C@@H](COC(F)(F)F)O[C@H]1n1cnc2c(N[C@H]3CCOC3)ncnc21 [Example 22, N-(Tetrahydro-furan-3S-yl)-5′-O-trifluoromethyl-adenosine] | >63 |  | 
20 | CC(=O)NCCNc1ncnc2c1ncn2[C@@H]1O[C@H](COC(F)(F)F)[C@@H](O)[C@H]1O [Example 23, N-{2-[9-(3R,4S-Dihydroxy-5R-trifluoromethoxymethyl-tetrahydro-furan-2R-yl)-9H-purin-6-ylamino]-ethyl}-acetamide] | >175 | 12.52 | 
21 | CCOC(=O)N1CCC(Nc2nc(C)nc3c2ncn3[C@@H]2O[C@H](COC(F)(F)F)[C@@H](O)[C@H]2O)CC1 [Example 24, 4-[9-(3R,4S-Dihydroxy-5R-trifluoromethoxymethyl-tetrahydro-furan-2R-yl)-2-methyl-9H-purin-6-ylamino]-piperidine-1-carboxylic Acid Ethyl Ester] | >134 | 51.70 | 
22 | Cc1nc(NC2CCOCC2)c2ncn([C@@H]3O[C@H](COC(F)(F)F)[C@@H](O)[C@H]3O)c2n1 [Example 25, 2-Methyl N-(tetrahydro-pyran-4-yl)-5′-O-trifluoromethyl-adenosine] |  | 32 | 

Reference: US6407076B1, “Adenosine analogues and related method of treatment” (SmithKline Beecham Corporation, priority 1997, dated 2002)
